The subject of one assay is c-Myc. Kind of assay: qRT-PCR quantification of c-Myc expression in cancer stem cells. Format: cell-based, human. Conditions: 10 μM niclosamide, DMSO base-line; U87-MG (CSC), DU-145 (CSC), MCF-7 (CSC). As to the method: (§1) FIG. 28A-B: qRT-PCR quantification of c-Myc and BCL-2 expression in U87-MG(CSC) cells treated with DMSA or 10 μM niclosamide. For calculations: DMSO served as base-line in FIG. 28A. Mock-transfection served as base-line in FIG. 28B. Dotted line marks 1.5 fold change in y-axis, considered the benchmark for statistical significance.
(§2) FIG. 29A-B: qRT-PCR quantification of c-Myc and BCL-2 expression in DU-145 (CSC) cells treated with DMSA or 10 μM niclosamide. For calculations: DMSO served as base-line in FIG. 29A. Mock-transfection served as base-line in FIG. 29B. Dotted line marks 1.5 fold change in y-axis, considered the benchmark for statistical significance.
(§3) FIG. 30A-B. qRT-PCR quantification of c-Myc and BCL-2 expression in DU-145 (CSC) cells treated with DMSA or 10 μM niclosamide. For calculations: DMSO served as base-line in FIG. 30A. Mock-transfection served as base-line in FIG. 30B. Dotted line marks 1.5 fold change in y-axis, considered the benchmark for statistical significance.
(§4) U87-MG (CSC) were used to validate the NF-kB pathway. Cells were lysed using RIPA lysis buffer and 35 mcg cell lysate protein (determined by BCA assay) was loaded per well. […] The expression of c-Myc in the cells as measured by Western Blot was normalized. […] RNA levels were measured by qPRC using gene-specific Taqman probes for c-Myc and BCL-2. […]

The test system of a further assay is BCL-2. Kind of assay: qRT-PCR quantification of BCL-2 expression in cancer stem cells. It counts as cell-based, human. The settings on record: 10 μM niclosamide, DMSO base-line; U87-MG (CSC), DU-145 (CSC), MCF-7 (CSC). As to the method:
as §1, §2, §3, §4

Assay [1] concerns reactive oxygen species (ROS). The settings on record: mechanism shown in FIG. 25; cited from earlier work.

Each structure is given as a SMILES string.

Data on one compound can be found in patent publication US20220228126A1, “USE OF PCBP1 TO GENERATE INDUCED PLURIPOTENT STEM CELLS WHILE INHIBITING ONCOGENESIS” (priority 2019, published 2022).

With `O=C(Nc1ccc([N+](=O)[O-])cc1Cl)c1cc(Cl)ccc1O` [niclosamide], the c-Myc expression result in the assay with c-Myc is reported as “significantly down-regulated”. In addition, the BCL-2 expression entry with BCL-2 is recorded as “significantly down-regulated”. In addition, in assay [1], the “intracellular ROS content” value is “elevates”.
